These results are taken from publication PMC6618152, “Abscisic acid is a substrate of the ABC transporter encoded by the durable wheat disease resistance gene Lr34” (The New Phytologist, 2019).

Test [1] has as its target T1, LR34res (Triticum aestivum, UniProt A0A9R1MFS8).
T1 construct: gene CFC21_107174; full-length cDNA from p6U:cLr34res, C-terminal HA tag, in pNEV-N; expressed in Saccharomyces cerevisiae W303 and YMM12; predicted c; 160 kDa
T1 sequence (A0A9R1MFS8 1-1401): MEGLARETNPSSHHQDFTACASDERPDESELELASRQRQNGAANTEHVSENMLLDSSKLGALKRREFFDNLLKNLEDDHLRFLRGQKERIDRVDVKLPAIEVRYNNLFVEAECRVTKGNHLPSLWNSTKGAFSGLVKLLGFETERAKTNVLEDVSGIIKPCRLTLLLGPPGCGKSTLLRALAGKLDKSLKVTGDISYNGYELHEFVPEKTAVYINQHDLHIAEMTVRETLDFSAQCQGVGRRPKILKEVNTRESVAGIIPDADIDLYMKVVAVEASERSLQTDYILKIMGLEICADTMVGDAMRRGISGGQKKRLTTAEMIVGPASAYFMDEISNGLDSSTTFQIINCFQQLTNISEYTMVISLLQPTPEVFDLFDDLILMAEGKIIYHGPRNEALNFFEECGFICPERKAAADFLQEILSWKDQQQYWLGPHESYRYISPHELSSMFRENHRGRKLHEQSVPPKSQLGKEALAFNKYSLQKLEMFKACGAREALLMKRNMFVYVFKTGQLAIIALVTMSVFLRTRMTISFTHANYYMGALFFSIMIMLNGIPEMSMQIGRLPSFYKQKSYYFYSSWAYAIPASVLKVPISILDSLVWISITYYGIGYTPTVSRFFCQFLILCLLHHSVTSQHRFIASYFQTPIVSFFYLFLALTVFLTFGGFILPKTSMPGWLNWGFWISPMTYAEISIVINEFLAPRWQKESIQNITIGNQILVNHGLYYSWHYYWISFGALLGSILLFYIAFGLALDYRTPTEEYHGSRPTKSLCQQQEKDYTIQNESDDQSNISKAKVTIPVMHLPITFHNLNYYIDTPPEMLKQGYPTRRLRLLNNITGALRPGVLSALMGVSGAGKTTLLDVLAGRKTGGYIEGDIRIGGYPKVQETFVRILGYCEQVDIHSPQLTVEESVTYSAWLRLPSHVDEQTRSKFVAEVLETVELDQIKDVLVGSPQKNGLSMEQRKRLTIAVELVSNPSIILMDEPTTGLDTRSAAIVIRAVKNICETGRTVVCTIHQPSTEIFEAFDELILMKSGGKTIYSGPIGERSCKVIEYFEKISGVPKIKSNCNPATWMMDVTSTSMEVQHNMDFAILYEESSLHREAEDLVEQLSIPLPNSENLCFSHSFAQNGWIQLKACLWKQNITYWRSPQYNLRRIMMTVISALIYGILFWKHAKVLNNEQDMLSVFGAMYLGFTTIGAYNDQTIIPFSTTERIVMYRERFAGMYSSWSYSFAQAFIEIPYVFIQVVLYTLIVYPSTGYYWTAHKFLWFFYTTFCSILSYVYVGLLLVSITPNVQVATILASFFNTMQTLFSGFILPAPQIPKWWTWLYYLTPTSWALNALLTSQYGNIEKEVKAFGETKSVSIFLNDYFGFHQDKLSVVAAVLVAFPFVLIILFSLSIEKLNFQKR
In words: inhibition of 3H-ABA uptake in yeast YMM12. The class given is cell-based. As to conditions: 20 min preincubation, then 10 min with labelled ABA; general ABC transporter inhibitor; allele in this panel not stated, taken as LR34res.

The target in test [2] is T1, LR34res. Put plainly: competition of 3H-ABA uptake in LR34res-expressing yeast. The following applies: 50 nM labelled and unlabelled ABA mixture, 10 min, pH 6.3; competition for substrate binding suggested, not proven. The class given is cell-based.

Turning to `COc1ccc(Cl)cc1C(=O)NCCc1ccc(S(=O)(=O)NC(=O)NC2CCCCC2)cc1` [glibenclamide], the “relative 3H-ABA accumulation (% of control)” value at LR34res [1] is reported as “The ABC transporter inhibitor glibenclamide”. As to `C=C[C@](C)(O)CC[C@@H]1[C@@]2(C)CCCC(C)(C)[C@@H]2CC[C@@]1(C)O` [sclareol], at LR34res [2], the “% reduction of 3H-ABA uptake at 3 μM” value is given as ~ 40%.
